Data from patent US8367838B2, “Amines or amino alcohols as GLYT1 inhibitors” (Hoffmann-La Roche Inc., priority 2009, dated 2013).
Where a name gives a salt, the structure may show the parent alone.

Target: T1, mGlyT-1b (Mus musculus, UniProt P28571)
T1 construct: host or cells: Flp-in-CHO
T1 sequence (P28571 1-651 isoform P28571-2): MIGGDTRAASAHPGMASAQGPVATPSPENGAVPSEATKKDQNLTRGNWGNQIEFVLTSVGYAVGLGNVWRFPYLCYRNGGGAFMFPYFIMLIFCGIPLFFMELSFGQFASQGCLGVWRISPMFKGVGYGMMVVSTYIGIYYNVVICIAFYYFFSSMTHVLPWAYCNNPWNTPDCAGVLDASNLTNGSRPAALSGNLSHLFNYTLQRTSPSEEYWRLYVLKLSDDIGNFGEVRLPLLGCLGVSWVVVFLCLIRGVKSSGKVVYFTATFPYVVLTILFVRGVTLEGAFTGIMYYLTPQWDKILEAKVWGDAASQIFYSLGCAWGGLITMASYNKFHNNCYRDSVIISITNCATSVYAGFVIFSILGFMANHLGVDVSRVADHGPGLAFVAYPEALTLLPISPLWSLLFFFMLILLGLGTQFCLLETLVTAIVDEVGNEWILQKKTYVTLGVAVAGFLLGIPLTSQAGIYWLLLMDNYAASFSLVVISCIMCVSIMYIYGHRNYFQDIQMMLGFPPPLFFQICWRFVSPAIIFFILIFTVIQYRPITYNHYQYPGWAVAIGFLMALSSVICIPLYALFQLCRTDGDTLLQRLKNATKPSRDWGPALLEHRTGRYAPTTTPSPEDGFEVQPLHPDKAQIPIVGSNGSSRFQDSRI
Test: Glycine uptake inhibition assay (mGlyT-1b), [3H]-glycine uptake in transfected Flp-in-CHO cells
Format: cell-based
Conditions: Flp-in-CHO cells transfected with mGlyT-1b cDNA; [3H]-glycine 60 nM and 25 μM non-radioactive glycine; 20 min preincubation at 22° C.; read-out: IC50 (μM) at GlyT-1; Ic50 (hglyt1b)
Experimental: Nutrient mixture F-12 (Gibco Life-technologies), fetal bovine serum (FBS) 5%, (Gibco life technologies), Penicillin/Streptomycin 1% (Gibco life technologies), Hygromycin 0.6 mg/ml (Gibco life technologies), Glutamine 1 mM Gibco life technologies).
150 mM NaCl, 10 mM Hepes-Tris, pH 7.4, 1 mM CaCl2, 2.5 mM KCl, 2.5 mM MgSO4, 10 mM (+) D-glucose. Flp-in™-CHO (Invitrogen Cat n° R758-07) cells stably transfected with mGlyT1b cDNA.
Glycine Uptake Inhibition Assay (mGlyT-1b)
On day 1 mammalian cells, (Flp-in™-CHO), transfected with mGlyT-1b cDNA, were plated at the density of 40,000 cells/well in complete F-12 medium, without hygromycin in 96-well culture plates. On day 2, the medium was aspirated and the cells were washed twice with uptake buffer (UB). The cells were then incubated for 20 min at 22° C. with either (i) no potential competitor, (ii) 10 mM non-radioactive glycine, (iii) a concentration of a potential inhibitor. A range of concentrations of the potential inhibitor was used to generate data for calculating the concentration of inhibitor resulting in 50% of the effect (e.g. IC50, the concentration of the competitor inhibiting glycine uptake of 50%). A solution was then immediately added containing [^3H]-glycine 60 nM (11-16 Ci/mmol) and 25 μM non-radioactive glycine. The plates were incubated with gentle shaking and the reaction was stopped by aspiration of the mixture and washing (three times) with ice-cold UB. The cells were lysed with scintillation liquid, shaken 3 hours and the radioactivity in the cells was counted using a scintillation counter.

## N[C@@H](c1ccc(Cl)cc1)[C@H](O)c1ccc(OC2CCCC2)cc1 (racemic) [Example 48, rac-erythro-[2-Amino-2-(4-chloro-phenyl)-1-(4-cyclopentyloxy-phenyl)-ethanol hydrochloride]
  IC50: 0.433 µM

## N[C@@H](c1ccc(Cl)c(Cl)c1)[C@H](O)c1ccc(OC2CCOCC2)cc1F (racemic) [Example 33, rac-erythro-[2-Amino-2-(3,4-dichloro-phenyl)-1-[2-fluoro-4-(tetrahydro-pyran-4-yloxy)-phenyl]-ethanol hydrochloride]
  IC50: 0.036 µM

## Cc1ccc([C@H](N)[C@H](O)c2ccc(OC(C)C)cc2)cc1Cl (racemic) [Example 56, rac-erythro-2-Amino-2-(3-chloro-4-methylphenyl)-1-(4-isopropoxy-phenyl)-ethanol]
  IC50: 0.381 µM

## N[C@@H](c1ccc(Cl)c(Cl)c1)[C@H](O)c1ccc(OC2CCOC2)cc1 (mixture of isomers) [Example 42, rac-erythro-[rac-2-Amino-2-(3,4-dichloro-phenyl)-1-[4-(tetrahydro-furan-3-yloxy)-phenyl]-ethanol]
  IC50: 0.052 µM

## CC(=O)N1CCC(Oc2ccc([C@@H](O)[C@@H](N)c3ccc(Cl)c(Cl)c3)cc2)CC1 (racemic) [Example 46, rac-erythro-[1-(4-[4-[2-Amino-2-(3,4-dichloro-phenyl)-1-hydroxy-ethyl]-phenoxy]-piperidin-1-yl)-ethanone]
  IC50: 0.262 µM

## Cc1cc([C@@H](O)[C@@H](N)c2ccc(Cl)c(Cl)c2)cnc1OC1CCOC1 (mixture of isomers) [Example 31, rac-erythro-[(rac)-2-Amino-2-(3,4-dichloro-phenyl)-1-[5-methyl-6-(tetrahydro-furan-3-yloxy)-pyridin-3-yl]-ethanoldihydrochloride]
  IC50: 0.646 µM

## CO[C@H](c1ccc(-c2cccnc2)cc1)[C@@H](N)c1ccc(Cl)c(Cl)c1 (racemic) [Example 98, rac-erythro-1-(3,4-Dichloro-phenyl)-2-methoxy-2-(4-pyridin-3-yl-phenyl)-ethylamine dihydrochloride]
  IC50: 0.388 µM

## CS(=O)(=O)c1cccc(-c2ccc([C@@H](O)[C@@H](N)c3ccc(Cl)cc3)cc2)c1 (racemic) [Example 62, rac-erythro-2-Amino-2-(4-chloro-phenyl)-1-(3′-methanesulfonyl-biphenyl-4-yl)-ethanol]
  IC50: 0.068 µM

## CC(C)Oc1ccc([C@@H](O)[C@@H](N)c2ccc(Cl)c(Cl)c2)nc1 (racemic) [Example 32, rac-erythro-[2-Amino-2-(3,4-dichloro-phenyl)-1-(5-isopropoxy-pyridin-2-yl)-ethanoldihydrochloride]
  IC50: 0.842 µM

## Cc1cc(OC2CCOC2)ncc1[C@@H](O)[C@@H](N)c1ccc(Cl)c(Cl)c1 (mixture of isomers) [Example 24, rac-erythro-[(rac)-2-Amino-2-(3,4-dichloro-phenyl)-1-[4-methyl-6-(tetrahydro-furan-3-yloxy)-pyridin-3-yl]-ethanoldihydrochloride]
  IC50: 0.205 µM

## N[C@@H](c1ccc(Cl)cc1)[C@H](O)c1ccc(OCC(F)(F)C(F)(F)F)cc1F (racemic) [Example 101, rac-erythro-2-Amino-2-(4-chloro-phenyl)-1-[2-fluoro-4-(2,2,3,3,3-pentafluoro-propoxy)-phenyl]-ethanol]
  IC50: 0.334 µM

## N[C@@H](c1ccc(Cl)c(Cl)c1)[C@H](O)c1ccc(OC2CCOCC2)cc1 (single isomer, unassigned) [Example 41, (1R,2S or 1S,2R)-[2-Amino-2-(3,4-dichloro-phenyl)-1-[4-(tetrahydro-pyran-4-yloxy)-phenyl]-ethanol]
  IC50: 0.021 µM

## CS(=O)(=O)c1cccc(-c2ccc([C@@H](O)[C@@H](N)c3ccc(Cl)c(Cl)c3)c(F)c2)c1 (racemic) [Example 1, rac-erythro-[2-Amino-2-(3,4-dichloro-phenyl)-1-(3-fluoro-3′-methanesulfonyl-biphenyl-4-yl)-ethanol trifluoroacetate]
  IC50: 0.025 µM

## N[C@@H](c1ccc(Cl)c(Cl)c1)[C@H](O)c1ccc(OC2CCOCC2)nc1 (racemic) [Example 22, rac-erythro-[2-Amino-2-(3,4-dichloro-phenyl)-1-[6-(tetrahydro-pyran-4-yloxy)-pyridin-3-yl]-ethanoldihydrochloride]
  IC50: 0.131 µM

## N[C@@H](c1ccc(Cl)c(Cl)c1)[C@H](O)c1ccc(OCC2CC2)cc1 (racemic) [Example 49, rac-erythro-[2-Amino-1-(4-cyclopropylmethoxy-phenyl)-2-(3,4-dichloro-phenyl)-ethanol]
  IC50: 0.533 µM

## Cc1ccc([C@H](N)[C@H](O)c2ccc(-c3cncc(F)c3)cc2)cc1Cl (racemic) [Example 93, rac-erythro-2-Amino-2-(3-chloro-4-methyl-phenyl)-1-[4-(5-fluoro-pyridin-3-yl)-phenyl]-ethanol]
  IC50: 0.094 µM

## N[C@@H](c1ccc(Cl)cc1)[C@H](O)c1ccc(-c2cncnc2)cc1 (racemic) [Example 65, rac-erythro-2-Amino-2-(4-chloro-phenyl)-1-(4-pyrimidin-5-yl-phenyl)-ethanol]
  IC50: 0.139 µM

## Cc1cc(OC(C)C)ncc1[C@@H](O)[C@@H](N)c1ccc(Cl)c(Cl)c1 (racemic) [Example 30, rac-erythro-[2-Amino-2-(3,4-dichloro-phenyl)-1-(6-isopropoxy-4-methyl-pyridin-3-yl)-ethanoldihydrochloride]
  IC50: 0.577 µM

## N[C@@H](c1ccc(Cl)c(Cl)c1)[C@H](O)c1ccc(OCC2CCOCC2)cc1 (racemic) [Example 45, rac-erythro-[2-Amino-2-(3,4-dichloro-phenyl)-1-[4-(tetrahydro-pyran-4-ylmethoxy)-phenyl]-ethanol]
  IC50: 0.147 µM

## Cc1cc(-c2cncc(F)c2)ccc1[C@@H](O)[C@@H](N)c1ccc(Cl)c(Cl)c1 (racemic) [Example 2, rac-erythro-[2-Amino-2-(3,4-dichloro-phenyl)-1-[4-(5-fluoro-pyridin-3-yl)-2-methyl-phenyl]]-ethanol dihydrochloride]
  IC50: 0.063 µM

## Nc1ccc(-c2ccc([C@@H](O)[C@@H](N)c3ccc(Cl)cc3)cc2)cn1 (racemic) [Example 69, rac-erythro-2-Amino-1-[4-(6-amino-pyridin-3-yl)-phenyl]-2-(4-chloro-phenyl)-ethanol]
  IC50: 0.217 µM

## Cc1cc([C@@H](O)[C@@H](N)c2ccc(Cl)c(Cl)c2)ccc1-c1cncc(F)c1 (racemic) [Example 14, rac-erythro-[2-Amino-2-(3,4-dichloro-phenyl)-1-[4-(5-fluoro-pyridin-3-yl)-3-methyl-phenyl]-ethanolbis-trifluoroacetate]
  IC50: 0.275 µM

## CCO[C@H](c1ccc(-c2cncc(F)c2)cc1)[C@@H](N)c1ccc(Cl)c(Cl)c1 (racemic) [Example 99, rac-erythro-[1-(3,4-Dichloro-phenyl)-2-ethoxy-2-[4-(5-fluoro-pyridin-3-yl)-phenyl]-ethylamine trifluoroacetate]
  IC50: 0.285 µM

## NC(=O)c1cccc(-c2ccc([C@@H](O)[C@@H](N)c3ccc(Cl)c(Cl)c3)cc2)c1 (racemic) [Example 104, rac-erythro-4′-[2-Amino-2-(3,4-dichloro-phenyl)-1-hydroxy-ethyl]-biphenyl-3-carboxylic acid amide]
  IC50: 0.056 µM

## CS(=O)(=O)c1cccc(-c2ccc([C@@H](O)[C@@H](N)c3ccc(Cl)c(Cl)c3)nc2)c1 (racemic) [Example 11, rac-erythro-[2-Amino-2-(3,4-dichloro-phenyl)-1-[5-(3-methanesulfonyl-phenyl)-pyridin-2-yl]-ethanol bistrifluoroacetate]
  IC50: 0.097 µM

## CC(C)Oc1ccc([C@@H](O)[C@@H](N)c2ccc(Cl)cc2)cc1 (racemic) [Example 10, rac-erythro-[2-Amino-2-(4-chloro-phenyl)-1-(4-isopropoxy-phenyl)-ethanol hydrochloride]
  IC50: 0.188 µM

## Cc1ccc([C@H](N)[C@H](O)c2ccc(OC3CCOCC3)cc2)cc1Cl (racemic) [Example 54, rac-erythro-[2-Amino-2-(3-chloro-4-methyl-phenyl)-1-[4-(tetrahydro-pyran-4-yloxy)-phenyl]-ethanol]
  IC50: 0.104 µM
